Values joined by “and” are separate entries in the source; they are usually repeats but may differ in a detail not shown here. Identical values can stand only once.
System: 323965-272-R-J2-PDC complex spheroid growth, % test/control
Assay: Anticancer human tumor 323965-272-R-J2-PDC patient-derived pancreatic carcinoma cell line growth inhibition [Asc]
Conditions: for viability, T/C: stronger effect = lower value
How it was run: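 Complex spheroids combining tumor cells with HUVEC endothelial cells and human MSCs, at 37 degrees C, 5% CO2; agents tested alone or combined, half-log dilutions from at or near clinical Cmax, or 10 microM if Cmax unknown.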

[1] = curve of first compound, second compound 0.0316 µM
[2] = curve of first compound, second compound 0.1 µM
[3] = curve of first compound, second compound 0.316 µM
[4] = curve of first compound, second compound 1 µM
[5] = curve of first compound, second compound 3.16 µM
[6] = curve of first compound, second compound 10 µM
[7] = second compound 0.0316 µM, first compound 0.0316 µM
[8] = second compound 0.0316 µM, first compound 0.1 µM
[9] = second compound 0.0316 µM, first compound 0.316 µM
[10] = second compound 0.0316 µM, first compound 1 µM
[11] = second compound 0.0316 µM, first compound 3.16 µM
[12] = second compound 0.0316 µM, first compound 10 µM
[13] = second compound 0.1 µM, first compound 0.0316 µM
[14] = second compound 0.1 µM, first compound 0.1 µM
[15] = second compound 0.1 µM, first compound 0.316 µM
[16] = second compound 0.1 µM, first compound 1 µM
[17] = second compound 0.1 µM, first compound 3.16 µM
[18] = second compound 0.1 µM, first compound 10 µM
[19] = second compound 0.316 µM, first compound 0.0316 µM
[20] = second compound 0.316 µM, first compound 0.1 µM
[21] = second compound 0.316 µM, first compound 0.316 µM
[22] = second compound 0.316 µM, first compound 1 µM
[23] = second compound 0.316 µM, first compound 3.16 µM
[24] = second compound 0.316 µM, first compound 10 µM
[25] = second compound 1 µM, first compound 0.0316 µM
[26] = second compound 1 µM, first compound 0.1 µM
[27] = second compound 1 µM, first compound 0.316 µM
[28] = second compound 1 µM, first compound 1 µM
[29] = second compound 1 µM, first compound 3.16 µM
[30] = second compound 1 µM, first compound 10 µM
[31] = second compound 3.16 µM, first compound 0.0316 µM
[32] = second compound 3.16 µM, first compound 0.1 µM
[33] = second compound 3.16 µM, first compound 0.316 µM
[34] = second compound 3.16 µM, first compound 1 µM
[35] = second compound 3.16 µM, first compound 3.16 µM
[36] = second compound 3.16 µM, first compound 10 µM
[37] = second compound 10 µM, first compound 0.0316 µM
[38] = second compound 10 µM, first compound 0.1 µM
[39] = second compound 10 µM, first compound 0.316 µM
[40] = second compound 10 µM, first compound 1 µM
[41] = second compound 10 µM, first compound 3.16 µM
[42] = second compound 10 µM, first compound 10 µM
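Also: compound exposure lasted 7 days starting three days after spheroid seeding.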
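For viability, T/C in this document: 100% = DMSO vehicle control wells with viability set relative to vehicle.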

O=C(c1cc(Cc2n[nH]c(=O)c3ccccc23)ccc1F)N1CCN(C(=O)C2CC2)CC1 + Cc1c(S(C)(=O)=O)c(-c2cc(F)cc(N3CCN(c4ccc(NS(=O)(=O)c5ccc(NC(CCN6CCC(C(=O)OCCCP(=O)(O)O)CC6)CSc6ccccc6)c(S(=O)(=O)C(F)(F)F)c5)cc4)CC3)c2)c(-c2ccc(Cl)cc2)n1C(C)C was tested. Which IC50 [1] did it give?
The IC50 was greater than 10 µM.

What about the IC50 [2] of the same compound?
Its IC50 is greater than 10 µM.

What about the IC50 [3] of the same compound?
The IC50 was greater than 10 µM.

And the IC50 [4]?
The IC50 was greater than 10 µM.

What about the IC50 [5] of the same compound?
Its IC50 is greater than 10 µM.

And the IC50 [6]?
Its IC50 is greater than 10 µM.

And the viability, T/C [7]?
Its viability, T/C is 87.5%.

What about the viability, T/C [8] of the same compound?
Its viability, T/C is 92.7%.

What about the viability, T/C [9] of the same compound?
Its viability, T/C is 95.7%.

And the viability, T/C [10]?
The viability, T/C was 98.9%.

And the viability, T/C [11]?
The viability, T/C was 98.3%.

And the viability, T/C [12]?
The viability, T/C was 89%.

And the viability, T/C [13]?
Its viability, T/C is 103%.

What about the viability, T/C [14] of the same compound?
Its viability, T/C is 93%.

What about the viability, T/C [15] of the same compound?
The viability, T/C was 98.1%.

What about the viability, T/C [16] of the same compound?
Its viability, T/C is 91.2%.

What about the viability, T/C [17] of the same compound?
Its viability, T/C is 95%.

And the viability, T/C [18]?
The viability, T/C was 88.2%.

And the viability, T/C [19]?
The viability, T/C was 92.4%.

What about the viability, T/C [20] of the same compound?
The viability, T/C was 90.5%.

And the viability, T/C [21]?
Its viability, T/C is 92.8%.

What about the viability, T/C [22] of the same compound?
Its viability, T/C is 87.7%.

And the viability, T/C [23]?
Its viability, T/C is 91.6%.

And the viability, T/C [24]?
The viability, T/C was 74.7%.

What about the viability, T/C [25] of the same compound?
The viability, T/C was 85.6%.

And the viability, T/C [26]?
The viability, T/C was 79.3%.

What about the viability, T/C [27] of the same compound?
The viability, T/C was 83.8%.

What about the viability, T/C [28] of the same compound?
Its viability, T/C is 84.2%.

What about the viability, T/C [29] of the same compound?
Its viability, T/C is 80.8%.

And the viability, T/C [30]?
Its viability, T/C is 72.2%.

And the viability, T/C [31]?
Its viability, T/C is 85.9%.

And the viability, T/C [32]?
The viability, T/C was 76.5%.

And the viability, T/C [33]?
Its viability, T/C is 78.6%.

What about the viability, T/C [34] of the same compound?
The viability, T/C was 74.2%.

And the viability, T/C [35]?
The viability, T/C was 78.4%.

And the viability, T/C [36]?
Its viability, T/C is 60.2%.

And the viability, T/C [37]?
The viability, T/C was 72.4%.

And the viability, T/C [38]?
Its viability, T/C is 75.2%.

And the viability, T/C [39]?
The viability, T/C was 64.9%.

What about the viability, T/C [40] of the same compound?
The viability, T/C was 71.1%.

And the viability, T/C [41]?
The viability, T/C was 81.1%.

What about the viability, T/C [42] of the same compound?
Its viability, T/C is 51.8%.

C#Cc1c(F)ccc2cc(O)cc(-c3ncc4c(N5CC6CCC(C5)N6)nc(OCC56CCCN5CC(F)C6)nc4c3F)c12 (stereo unspecified) + Cc1c(S(C)(=O)=O)c(-c2cc(F)cc(N3CCN(c4ccc(NS(=O)(=O)c5ccc(NC(CCN6CCC(C(=O)OCCCP(=O)(O)O)CC6)CSc6ccccc6)c(S(=O)(=O)C(F)(F)F)c5)cc4)CC3)c2)c(-c2ccc(Cl)cc2)n1C(C)C was tested. Which IC50 [1] did it give?
Its IC50 is greater than 10 µM.

What about the IC50 [2] of the same compound?
The IC50 was greater than 10 µM.

What about the IC50 [3] of the same compound?
The IC50 was 8.15 µM.

What about the IC50 [4] of the same compound?
The IC50 was 6.92 µM.

And the IC50 [5]?
The IC50 was 4.12 µM.

And the IC50 [6]?
Its IC50 is 3.59 µM.

What about the viability, T/C [7] of the same compound?
Its viability, T/C is 99.9%.

And the viability, T/C [8]?
The viability, T/C was 98.2%.

And the viability, T/C [9]?
Its viability, T/C is 109%.

What about the viability, T/C [10] of the same compound?
The viability, T/C was 108%.

And the viability, T/C [11]?
The viability, T/C was 79.4%.

And the viability, T/C [12]?
Its viability, T/C is 58.2%.

And the viability, T/C [13]?
The viability, T/C was 100%.

What about the viability, T/C [14] of the same compound?
Its viability, T/C is 111%.

What about the viability, T/C [15] of the same compound?
The viability, T/C was 93.2%.

What about the viability, T/C [16] of the same compound?
The viability, T/C was 93.2%.

And the viability, T/C [17]?
Its viability, T/C is 75.7%.

What about the viability, T/C [18] of the same compound?
Its viability, T/C is 51.4%.

And the viability, T/C [19]?
The viability, T/C was 97.8%.

What about the viability, T/C [20] of the same compound?
The viability, T/C was 99.1%.

And the viability, T/C [21]?
The viability, T/C was 98.2%.

What about the viability, T/C [22] of the same compound?
Its viability, T/C is 90.6%.

What about the viability, T/C [23] of the same compound?
The viability, T/C was 73.9%.

What about the viability, T/C [24] of the same compound?
The viability, T/C was 45%.

What about the viability, T/C [25] of the same compound?
Its viability, T/C is 87.1%.

What about the viability, T/C [26] of the same compound?
Its viability, T/C is 87.9%.

And the viability, T/C [27]?
Its viability, T/C is 88.4%.

And the viability, T/C [28]?
Its viability, T/C is 80.8%.

And the viability, T/C [29]?
The viability, T/C was 67.9%.

What about the viability, T/C [30] of the same compound?
Its viability, T/C is 41.5%.

And the viability, T/C [31]?
The viability, T/C was 74.6%.

What about the viability, T/C [32] of the same compound?
The viability, T/C was 73.8%.

What about the viability, T/C [33] of the same compound?
Its viability, T/C is 80.7%.

And the viability, T/C [34]?
Its viability, T/C is 76.5%.

And the viability, T/C [35]?
The viability, T/C was 56.2%.

And the viability, T/C [36]?
The viability, T/C was 29.3%.

And the viability, T/C [37]?
Its viability, T/C is 72%.

What about the viability, T/C [38] of the same compound?
The viability, T/C was 73.6%.

And the viability, T/C [39]?
Its viability, T/C is 59.9%.

What about the viability, T/C [40] of the same compound?
The viability, T/C was 72%.

And the viability, T/C [41]?
The viability, T/C was 50.9%.

What about the viability, T/C [42] of the same compound?
The viability, T/C was 24.4%.

What does the source list for C#Cc1c(F)ccc2cc(O)cc(-c3ncc4c(N5CC6CCC(C5)N6)nc(OCC56CCCN5CC(F)C6)nc4c3F)c12 (stereo unspecified)?
viability, T/C (compound 0.0316 µM): 105% and 94.4% and 104%; viability, T/C (compound 0.1 µM): 106% and 91.6% and 102%; viability, T/C (compound 0.316 µM): 103% and 107% and 98.3%; viability, T/C (compound 1 µM): 87.3% and 97.4% and 111%; viability, T/C (compound 3.16 µM): 67.9% and 75.1% and 76.7%; viability, T/C (compound 10 µM): 62.3% and 59.4% and 62.5%; IC50 (curve of compound): > 10 µM

From PubChem BioAssay AID1963425 (Molecular Pharmacology Branch, DTP, NCI, 2024)
